The results in this text go back to the OligoGym collection.

Where “and” joins values, the source holds several entries; their conditions need not be identical. Equal values may be shown once. After the bases stand the sugars from the 5' end (letter, count) and the backbone: PS all phosphorothioate, else s phosphorothioate and o phosphodiester by linkage. Methylation of C is not given here. e = 2'-O-(2-methoxyethyl) (MOE); k = constrained ethyl (cEt); d = 2'-deoxy (DNA)

The first data set concerns the target IRF4. The settings on record: ASO, MM.1R, 0.0625 µM.
AGTGTCTAAAGTCCCA (sugars k3 d10 k3, PS): the target mRNA inhibition worked out at 15%.

The data set is the same for the next values; noted with them: ASO, MM.1R, 0.074 µM.
“GCAGTGATGTCAGGTT (sugars k2 d9 e3 k2, PS)”: the target mRNA inhibition worked out at 20%.

Staying with this data set, now noted: ASO, MM.1R, 0.222 µM.
“GCAGTGATGTCAGGTT (sugars k2 d9 e3 k2, PS)”: the target mRNA inhibition worked out at 48%.

The data set is the same for the next values; noted with them: ASO, MM.1R, 0.25 µM.
As for AGTGTCTAAAGTCCCA (sugars k3 d10 k3, PS), the target mRNA inhibition is 34%.

The data set is the same for the next values; noted with them: ASO, MM.1R, 0.666 µM.
As to “GCAGTGATGTCAGGTT (sugars k2 d9 e3 k2, PS)”, the target mRNA inhibition came to 73%.

The same data set, now with this note: ASO, MM.1R, 1 µM.
Turning to “ACGTGTGCTTGCCAAG (sugars kkdddddddddekeke, PS)”, the target mRNA inhibition was 59% and 61%.

On to “TCAGTTTGTGAAGCAT (sugars k2 d9 e3 k2, PS)”, for which the target mRNA inhibition stood at 39%.

Consider AGTGTCTAAAGTCCCA (sugars k3 d10 k3, PS), for which the target mRNA inhibition is 42% and 58%.

Regarding CGCCCGACCCTCCCCA (sugars k3 d10 k3, PS), the target mRNA inhibition is -24%.

For “CAGTGACTTGCATCCA (sugars kkdddddddddkekek, PS)”, the target mRNA inhibition is 26%.

With GACTGGAACATTGTTG (sugars k3 d10 k3, PS), the target mRNA inhibition was -41%.

In the case of “CTTGATAAAGGCTGAA (sugars k3 d9 k3 e1, PS)”, the target mRNA inhibition was 36%.

For CATTCGAGGTGATTCT (sugars k3 d10 k3, PS), the target mRNA inhibition is 11%.

TATACATTGAGGCATA (sugars k3 d10 k3, PS): the target mRNA inhibition came to 7%.

For the sequence “CTGCTTGAGGTTTTCC (sugars kkdddddddddkdkdk, PS)”, the target mRNA inhibition amounted to 36%.

With “ACGGAAGTTTACACTG (sugars kdddddddddkekeke, PS)”, the target mRNA inhibition turned out to be 2%.

Consider GGCTGAAACGGTCAGC (sugars k3 d10 k3, PS), for which the target mRNA inhibition is -27%.

As for “ACGGAAGTTTACACTG (sugars k3 d9 k3 e1, PS)”, the target mRNA inhibition came to 29%.

For the sequence CAAGTGTCTAAAGTCC (sugars k3 d10 k3, PS), the target mRNA inhibition came out at 3%.

“ACGGAAGTTTACACTG (sugars k2 d9 e3 k2, PS)”: the target mRNA inhibition turned out to be 15%.

In the case of AGCTATGCTCTAGGAA (sugars k3 d10 k3, PS), the target mRNA inhibition came out at 11%.

Regarding “AGTGTCTAAAGTCCCA (sugars kkdddddddddkdkdk, PS)”, the target mRNA inhibition was 14% and -5%.

Turning to CCGGAGGAAGTCCCCT (sugars k3 d10 k3, PS), the target mRNA inhibition was found to be 0%.

Turning to “GCAGTGATGTCAGGTT (sugars k2 d9 e3 k2, PS)”, the target mRNA inhibition came out at 81%.

Turning to TGGGATGCCACCATCC (sugars k3 d10 k3, PS), the target mRNA inhibition was -2%.

Staying with this data set, now noted: ASO, MM.1R, 2 µM.
As for “GCAGTGATGTCAGGTT (sugars k2 d9 e3 k2, PS)”, the target mRNA inhibition amounted to 91%.

The data set is the same for the next values; noted with them: ASO, MM.1R, 4 µM.
AGTGTCTAAAGTCCCA (sugars k3 d10 k3, PS): the target mRNA inhibition stood at 75%.

The same data set, now with this note: ASO, SK-MEL-28, 4 µM.
In the case of TGAGATAGGAAGCACT (sugars k3 d10 k3, PS), the target mRNA inhibition was 38%.

Regarding CACTGGCATCGAGACG (sugars k3 d10 k3, PS), the target mRNA inhibition came to 61%.

In the case of TCTTACAGCAATCTTA (sugars k3 d10 k3, PS), the target mRNA inhibition came out at 32%.

With CCGAACTCTCCGCCTC (sugars k3 d10 k3, PS), the target mRNA inhibition is 36%.

In the case of TACATTGAGGCATACA (sugars k3 d10 k3, PS), the target mRNA inhibition was found to be 41%.

As to CTTTTTTGGCTCCCTC (sugars k3 d10 k3, PS), the target mRNA inhibition stood at 36%.

Take AGATGTATACATCACT (sugars k3 d10 k3, PS): the target mRNA inhibition is 76% and 71%.

Turning to GCCCAATACATATCCA (sugars k3 d10 k3, PS), the target mRNA inhibition was 58%.

As for AAAAACTTGGGTCACT (sugars k3 d10 k3, PS), the target mRNA inhibition is -19%.

For the sequence TGGACATCTGCGGGTC (sugars k3 d10 k3, PS), the target mRNA inhibition turned out to be 44%.

For ATAATTGGCACGAGGA (sugars k3 d10 k3, PS), the target mRNA inhibition came to 67%.

With GGGAATCCTTAATTAT (sugars k3 d10 k3, PS), the target mRNA inhibition came out at 12%.

Consider GGAGTACCCGCAGAGA (sugars k3 d10 k3, PS), for which the target mRNA inhibition stood at 25%.

For the sequence CTATTATAGAGCATCA (sugars k3 d10 k3, PS), the target mRNA inhibition stood at 55%.

On to AGGAGATATTAATTAC (sugars k3 d10 k3, PS), for which the target mRNA inhibition came to 57%.

GCATCTCTAAAGAATG (sugars k3 d10 k3, PS): the target mRNA inhibition turned out to be 61%.

In the case of CAAACACTAATACCTA (sugars k3 d10 k3, PS), the target mRNA inhibition amounted to 31%.

Regarding GAACGAGGTAAATCTT (sugars k3 d10 k3, PS), the target mRNA inhibition stood at 56%.

ACTGGGTACATGGCAG (sugars k3 d10 k3, PS): the target mRNA inhibition is 59%.

TCCATAGATCAACATG (sugars k3 d10 k3, PS): the target mRNA inhibition stood at 45%.

Turning to ATGGAACCCCAAAATC (sugars k3 d10 k3, PS), the target mRNA inhibition was 24%.

Consider GGGAACAAAAGGTTCC (sugars k3 d10 k3, PS), for which the target mRNA inhibition is -11%.

On to GTTCAGAAACCCTCAT (sugars k3 d10 k3, PS), for which the target mRNA inhibition was 13%.

With CCACCTCCATTCTAAC (sugars k3 d10 k3, PS), the target mRNA inhibition was -15%.

For AATCAGATGTCACTGA (sugars k3 d10 k3, PS), the target mRNA inhibition worked out at 3%.

Consider CTATTAAACAGCACTC (sugars k3 d10 k3, PS), for which the target mRNA inhibition came out at 18%.

For TTCTACAAGGTCTGAG (sugars k3 d10 k3, PS), the target mRNA inhibition came to 47%.

As to TCAGAGCTAGAACATG (sugars k3 d10 k3, PS), the target mRNA inhibition came out at 38%.

As for ACTGTTAAAGCAGCAT (sugars k3 d10 k3, PS), the target mRNA inhibition turned out to be 71%.

TTAAAGAGTGGTACAC (sugars k3 d10 k3, PS): the target mRNA inhibition stood at 6%.

For the sequence AGCCGCCACATCAGCA (sugars k3 d10 k3, PS), the target mRNA inhibition is 21%.

AAGTGATAGGTATACT (sugars k3 d10 k3, PS): the target mRNA inhibition was 50%.

In the case of TTGGAAACCAGCCCTT (sugars k3 d10 k3, PS), the target mRNA inhibition amounted to 39%.

On to CATCCAAGAGTAGCGC (sugars k3 d10 k3, PS), for which the target mRNA inhibition is 73% and 63%.

Consider ACAAGCATAAAAGGTT (sugars k4 d8 k4, PS), for which the target mRNA inhibition came to 40%.

Turning to GGCTGATAATTAATCT (sugars k3 d10 k3, PS), the target mRNA inhibition was found to be 47%.

In the case of GATGGAACAGTAACTT (sugars k3 d10 k3, PS), the target mRNA inhibition came to 51%.

For TCCTTTGGGTGCTTTC (sugars k3 d10 k3, PS), the target mRNA inhibition was determined as 32%.

For the sequence GATCGAGCGGTGAAAC (sugars k3 d10 k3, PS), the target mRNA inhibition was 23%.

As to TTGCAGAGCAATTTAC (sugars k3 d10 k3, PS), the target mRNA inhibition amounted to 50%.

For CAGCTCACCGCGCTCA (sugars k3 d10 k3, PS), the target mRNA inhibition came out at 42%.

For the sequence GTATTTATGCCCTCGC (sugars k3 d10 k3, PS), the target mRNA inhibition was determined as 53%.

As to CCACAGTTGAACCCAT (sugars k3 d10 k3, PS), the target mRNA inhibition worked out at 36%.

With TCAATAATCTCCCAGC (sugars k3 d10 k3, PS), the target mRNA inhibition worked out at 55%.

As for AAAAATGTCCCATCCA (sugars k3 d10 k3, PS), the target mRNA inhibition came to 30%.

With ACAGTGATCATCAATG (sugars k3 d10 k3, PS), the target mRNA inhibition is 56%.

CCGTGAAACAGCAGTT (sugars k3 d10 k3, PS): the target mRNA inhibition is 56%.
